Read-outs that look alike come from different tables or passages of the source.
Target: T1, purified LasB protein from P. aeruginosa (Pseudomonas aeruginosa, UniProt P14756)
T1 construct: purchased Merck or Charles River Laboratories
Experiment: Fluorometric assay to determine Ki (Abz-Ala-Gly-Leu-Ala-p-Nitro-Benzyl-Amide substrate)
Type: biochemical
Description: Experiments were therefore conducted (1) to measure the potency of inhibition of compounds of the invention against purified Pseudomonas aeruginosa LasB enzyme and also experiments were conducted (2) to measure the ability of compounds of the invention to inhibit LasB-catalysed elastin degradation. The first assay uses a commercial fluorescent synthetic peptide and purified LasB enzyme. The LasB hydrolysis kinetics are measured allowing the determination of the IC50 and Ki of the inhibitors; the second is a more physiological assay using dialysed Pseudomonas aeruginosa supernatant as source of enzyme, plus its natural substrate Elastin. It is an "end point assay" that determines the percentage of LasB inhibition by each compound for one particular time point and inhibitor concentration. Technical details are described below:
This assay uses commercially available substrate (Abz-Ala-Gly-Leu-Ala-p-Nitro-Benzyl-Amide (Ex: 340 nm, Em: 415 nm) from Peptide International) and purified LasB protein from P. aeruginosa (provided by Merck or Charles River Laboratories). It is performed to determine LasB elastase activity and assess compound inhibition in 96-well plate format. All compounds of Formula (I) were assessed using the method described below.
Method: 10 to 140 ng/ml purified LasB is incubated with 250 µM Abz-Ala-Gly-Leu-Ala-p-Nitro-Benzyl-Amide in 50 mM Tris-HCl pH 7.4, 2.5 mM CaCl2, 0.01% of Triton X100 at 37°C. LasB activity (corresponding to fluorescence emission induced by substrate hydrolysis) is measured over 30 min at 37°C with a fluorescence plate reader such as the Perkin Elmer Envision or similar. Different range of inhibitor concentrations are routinely assessed depending of inhibitor potency from 0.0016 to 200 µM (2-fold dilutions series) in order to determine IC50.
The equation used to calculate the Ki from IC50 is: Ki = IC50 / (1+([S]/Km)) where [S] = 250 µM and Km = 214 µM.

[1] = Ki calculated from IC50, [S] = 250 µM, Km = 214 µM, 37°C, pH 7.4

T1 sequence (P14756 198-498): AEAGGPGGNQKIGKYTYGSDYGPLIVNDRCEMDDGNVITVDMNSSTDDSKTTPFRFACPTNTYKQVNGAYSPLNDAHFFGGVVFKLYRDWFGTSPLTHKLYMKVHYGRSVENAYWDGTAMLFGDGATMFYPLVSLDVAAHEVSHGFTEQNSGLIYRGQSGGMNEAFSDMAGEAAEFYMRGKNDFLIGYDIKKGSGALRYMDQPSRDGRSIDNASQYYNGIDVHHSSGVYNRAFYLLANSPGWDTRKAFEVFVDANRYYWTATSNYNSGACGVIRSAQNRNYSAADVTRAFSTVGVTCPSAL

SMILES | Ki [nM] | Ki [1] [nM]
O=C(O)CC1(C(=O)NCc2nc3ccccc3s2)Cc2cc(Cl)c(Cl)cc2C1 [Example 4, 2-(2-((benzo[d]thiazol-2-ylmethyl)carbamoyl)-5,6-dichloro-2,3-dihydro-1H-inden-2-yl)acetic acid] | 200 to 10000 | –
CN(C)C1CCN(C(=O)c2ccc(-c3csc(CNC(=O)C4(CC(=O)O)Cc5ccccc5C4)n3)cc2)CC1 [Example 17, 2-[2-[[4-[4-[4-(dimethylamino)piperidine-1-carbonyl]phenyl]thiazol-2-yl]methylcarbamoyl]indan-2-yl] acetic acid] | 200 to 10000 | –
CN(C)[C@H]1CCN(C(=O)c2ccc(-c3csc(CNC(=O)C4(CC(=O)O)Cc5ccccc5C4)n3)cc2)C1 [Example 18, 2-[2-[[4-[4-[(3S)-3-(dimethylamino)pyrrolidine-1-carbonyl]phenyl]thiazol-2-yl]methylcarbamoyl]indan-2-yl]acetic acid] | 200 to 10000 | –
CN(C)CCCNC(=O)c1ccccc1-c1csc(CNC(=O)C2(CC(=O)O)Cc3ccccc3C2)n1 [Example 21, 2-[2-[[4-[2-[3-(dimethylamino)propylcarbamoyl]phenyl]thiazol-2-yl]methylcarbamoyl]indan-2-yl]acetic acid] | 200 to 10000 | –
C[N+]1(C)CCN(C(=O)c2ccc(-c3csc(CNC(=O)C4(CC(=O)[O-])Cc5ccccc5C4)n3)cc2)CC1 [Example 22, 2-[2-[[4-[4-(4,4-dimethylpiperazin-4-ium-1-carbonyl)phenyl]thiazol-2-yl]methylcarbamoyl]indan-2-yl]acetate] | 200 to 10000 | –
COc1ccc(C(=O)NCCN(C)C)cc1-c1csc(CNC(=O)C2(CC(=O)O)Cc3ccccc3C2)n1 [Example 24, 2-[2-[[4-[5-[2-(dimethylamino)ethylcarbamoyl]-2-methoxy-phenyl]thiazol-2-yl]methylcarbamoyl]indan-2-yl]acetic acid] | 200 to 10000 | –
COc1ccc(C(=O)N2CCN(C)CC2)cc1-c1csc(CNC(=O)C2(CC(=O)O)Cc3ccccc3C2)n1 [Example 25, 2-[2-[[4-[2-methoxy-5-(4-methylpiperazine-1-carbonyl)phenyl)thiazol-2-yl]methylcarbamoyl]indan-2-yl]acetic acid] | 200 to 10000 | –
CN(C)C1CN(c2cccc(-c3csc(CNC(=O)C4(CC(=O)O)Cc5ccccc5C4)n3)c2)C1 [Example 29, 2-[2-[[4-[3-[3-(dimethylamino)azetidin-1-yl]phenyl]thiazol-2-yl]methylcarbamoyl]indan-2-yl]acetic acid] | 200 to 10000 | –
C[N+](C)(C)CC(=O)Nc1ccc(-c2csc(CNC(=O)C3(CC(=O)[O-])Cc4ccccc4C3)n2)cc1 [Example 40, 2-[2-[[4-[4-[[2-(trimethylammonio)acetyl]amino]phenyl]thiazol-2-yl]methylcarbamoyl]indan-2-yl] acetate] | 200 to 10000 | –
CN(C)CC(=O)Nc1cccc(-c2csc(CNC(=O)C3(CC(=O)O)Cc4ccccc4C3)n2)c1 [Example 41, 2-[2-[[4-[3-[[2-(dimethylamino)acetyl]amino]phenyl]thiazol-2-yl]methylcarbamoyl]indan-2-yl]acetic acid] | 200 to 10000 | –
C[N+](C)(C)CC(=O)Nc1cccc(-c2csc(CNC(=O)C3(CC(=O)[O-])Cc4ccccc4C3)n2)c1 [Example 42, 2-[2-[[4-[3-[[2-(trimethylammonio)acetyl]amino]phenyl]thiazol-2-yl]methylcarbamoyl]indan-2-yl] acetate] | 200 to 10000 | –
CN(C)CCOc1ccc(-c2csc(CNC(=O)C3(CC(=O)O)Cc4ccccc4C3)n2)cc1 [Example 48, 2-[2-[[4-[4-[2-(dimethylamino)ethoxy]phenyl]thiazol-2-yl]methylcarbamoyl]indan-2-yl]acetic acid] | 200 to 10000 | –
NC1CCN(C(=O)COc2ccc(-c3csc(CNC(=O)C4(CC(=O)O)Cc5ccccc5C4)n3)cc2)CC1 [Example 52, 2-[2-[[4-[4-[2-(4-amino-1-piperidyl)-2-oxo-ethoxy]phenyl]thiazol-2-yl]methylcarbamoyl]indan-2-yl]acetic acid] | 50 to 200 | –
CN(C)CCOc1cccc(-c2csc(CNC(=O)C3(CC(=O)O)Cc4ccccc4C3)n2)c1 [Example 53, 2-[2-[[4-[3-[2-(dimethylamino)ethoxy]phenyl]thiazol-2-yl]methylcarbamoyl]indan-2-yl]acetic acid] | 200 to 10000 | –
CN(C)CCn1cc(-c2csc(CNC(=O)C3(CC(=O)O)Cc4ccccc4C3)n2)cn1 [Example 97, 2-[2-[[4-[1-[2-(dimethylamino)ethyl]pyrazol-4-yl]thiazol-2-yl]methylcarbamoyl]indan-2-yl]acetic acid] | 200 to 10000 | –
C[N+]1(CCCn2cc(-c3csc(CNC(=O)C4(CC(=O)[O-])Cc5ccccc5C4)n3)cn2)CCOCC1 [Example 100, 2-[2-[[4-[1-[3-(4-methylmorpholin-4-ium-4-yl)propyl]pyrazol-4-yl]thiazol-2-yl]methylcarbamoyl]indan-2-yl]acetate] | – | 200 to 10000
CC(=O)N1CC[N+](C)(CCCn2cc(-c3csc(CNC(=O)C4(CC(=O)[O-])Cc5ccccc5C4)n3)cn2)CC1 [Example 107, 2-[2-[[4-[1-[3-(4-acetyl-1-methyl-piperazin-1-ium-1-yl)propyl]pyrazol-4-yl]thiazol-2-yl]methylcarbamoyl]indan-2-yl]acetate] | 200 to 10000 | –
O=C(O)CC1(C(=O)NCc2nc(-c3cnn(CCCN4CCCCC4)c3)cs2)Cc2ccccc2C1 [Example 111, 2-[2-[[4-[1-[3-(1-piperidyl)propyl]pyrazol-4-yl]thiazol-2-yl]methylcarbamoyl]indan-2-yl]acetic acid] | 200 to 10000 | –
CN(C)C(=O)C1CCN(CCCn2cc(-c3csc(CNC(=O)C4(CC(=O)O)Cc5ccccc5C4)n3)cn2)CC1 [Example 113, 2-[2-[[4-[1-[3-[4-(dimethylcarbamoyl)-1-piperidyl]propyl]pyrazol-4-yl]thiazol-2-yl]methylcarbamoyl]indan-2-yl]acetic acid] | 200 to 10000 | –
C[N+]1(C)CCC(C(=O)N2CC[N+](C)(CCCn3cc(-c4csc(CNC(=O)C5(CC(=O)O)Cc6ccccc6C5)n4)cn3)CC2)CC1 [Example 115, 2-[2-[[4-[1-[3-[4-(1,1-dimethylpiperidin-1-ium-4-carbonyl)-1-methyl-piperazin-1-ium-1-yl]propyl]pyrazol-4-yl]thiazol-2-yl]methylcarbamoyl]indan-2-yl] acetate] | – | 200 to 10000
C[n+]1ccc(CCn2cc(-c3csc(CNC(=O)C4(CC(=O)[O-])Cc5ccccc5C4)n3)cn2)cc1 [Example 117, 2-[2-[[4-[1-[2-(1-methylpyridin-1-ium-4-yl)ethyl]pyrazol-4-yl]thiazol-2-yl]methylcarbamoyl]indan-2-yl]acetate] | 200 to 10000 | –
C[n+]1ccc(CCCn2cc(-c3csc(CNC(=O)C4(CC(=O)[O-])Cc5ccccc5C4)n3)cn2)cc1 [Example 118, 2-[2-[[4-[1-[3-(1-methylpyridin-1-ium-4-yl)propyl]pyrazol-4-yl]thiazol-2-yl]methylcarbamoyl]indan-2-yl]acetate] | 200 to 10000 | –
CN(C)CCNS(=O)(=O)c1ccc(-c2csc(CNC(=O)C3(CC(=O)O)Cc4ccccc4C3)n2)cc1 [Example 131, 2-[2-[[4-[4-[2-(dimethylamino)ethylsulfamoyl]phenyl]thiazol-2-yl]methylcarbamoyl]indan-2-yl]acetic acid] | 200 to 10000 | –
CN1CCN(C(=O)c2cncc(-c3csc(CNC(=O)C4(CC(=O)O)Cc5ccccc5C4)n3)c2)CC1 [Example 144, 2-[2-[[4-[5-(4-methylpiperazine-1-carbonyl)-3-pyridyl]thiazol-2-yl]methylcarbamoyl]indan-2-yl]acetic acid] | 200 to 10000 | –
